# Assay results from the Kinase Knowledgebase extract (Sharma et al. 2016).
# Biological target: ROCK2 (human) (UniProt O75116)
# Assay: Assessment of ROCK2 Kinase Activity
# Chain of ROCK2 (human) (O75116 whole entry, looked up): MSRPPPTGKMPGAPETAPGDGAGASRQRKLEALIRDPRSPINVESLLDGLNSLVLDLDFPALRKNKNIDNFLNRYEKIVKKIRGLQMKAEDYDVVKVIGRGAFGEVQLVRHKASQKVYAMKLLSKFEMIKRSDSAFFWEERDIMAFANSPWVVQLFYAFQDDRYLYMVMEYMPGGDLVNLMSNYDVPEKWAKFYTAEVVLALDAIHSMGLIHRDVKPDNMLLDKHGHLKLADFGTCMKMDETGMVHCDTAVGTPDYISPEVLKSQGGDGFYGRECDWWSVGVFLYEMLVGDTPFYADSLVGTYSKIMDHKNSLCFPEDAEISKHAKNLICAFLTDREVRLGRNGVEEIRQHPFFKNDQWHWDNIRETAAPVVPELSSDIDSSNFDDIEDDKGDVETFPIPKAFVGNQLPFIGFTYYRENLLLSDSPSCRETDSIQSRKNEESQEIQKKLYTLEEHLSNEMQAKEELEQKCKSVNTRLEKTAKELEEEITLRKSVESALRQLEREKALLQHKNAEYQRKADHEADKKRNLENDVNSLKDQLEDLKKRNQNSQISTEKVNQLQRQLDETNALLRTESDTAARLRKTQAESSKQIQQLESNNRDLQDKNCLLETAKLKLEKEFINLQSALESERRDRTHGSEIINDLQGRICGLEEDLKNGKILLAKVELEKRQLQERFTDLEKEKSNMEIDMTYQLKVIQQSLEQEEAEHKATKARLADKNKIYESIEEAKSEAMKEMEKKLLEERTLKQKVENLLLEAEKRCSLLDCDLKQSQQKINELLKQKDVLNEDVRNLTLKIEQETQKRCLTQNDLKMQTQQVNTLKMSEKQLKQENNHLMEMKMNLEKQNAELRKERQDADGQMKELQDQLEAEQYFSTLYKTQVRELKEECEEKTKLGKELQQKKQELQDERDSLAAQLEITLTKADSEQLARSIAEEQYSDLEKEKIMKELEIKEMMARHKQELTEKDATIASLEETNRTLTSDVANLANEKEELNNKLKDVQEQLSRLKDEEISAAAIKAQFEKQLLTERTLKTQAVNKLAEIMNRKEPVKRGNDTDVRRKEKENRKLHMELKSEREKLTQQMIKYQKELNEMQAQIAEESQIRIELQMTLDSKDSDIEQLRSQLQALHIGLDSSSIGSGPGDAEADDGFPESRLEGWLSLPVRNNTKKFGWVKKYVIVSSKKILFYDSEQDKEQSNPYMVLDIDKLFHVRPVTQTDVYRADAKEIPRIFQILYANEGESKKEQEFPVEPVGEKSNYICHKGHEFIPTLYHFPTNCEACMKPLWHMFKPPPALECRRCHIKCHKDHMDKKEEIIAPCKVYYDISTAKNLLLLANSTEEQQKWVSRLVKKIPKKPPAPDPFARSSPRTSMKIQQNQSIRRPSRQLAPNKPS
row,SMILES,IC50 [µM]
1,c1cc2cc(O[C@H]3CC[C@@H](NC4CC4)CC3)ccc2cn1,≤ 1
2,N[C@H]1CC[C@@H](Oc2ccc3cncc(Cl)c3c2)CC1,≤ 1
3,N[C@H]1CC[C@H](Oc2c(Cl)cc3cnccc3c2Cl)CC1,≤ 1
4,CCc1cncc2ccc(O[C@H]3CC[C@@H](N)CC3)cc12,≤ 1
5,CC(=O)Nc1ccc(CN[C@H]2CC[C@@H](Oc3ccc4cnccc4c3)CC2)cc1,≤ 1
6,N[C@H]1CC[C@@H](Oc2ccc3cnccc3c2-c2ccsc2)CC1,≤ 1
7,N[C@H]1CC[C@@H](Oc2ccc3cnccc3c2Cl)CC1,≤ 1
8,CN(C)C=NS(=O)(=O)c1cc(CN[C@H]2CC[C@@H](Oc3ccc4cnccc4c3Cl)CC2)ccc1Cl,≤ 1
9,N[C@H]1CC[C@@H](Oc2ccc3cnccc3c2Br)CC1,≤ 1
10,c1cncc(CN[C@H]2CC[C@@H](Oc3ccc4cnccc4c3)CC2)c1,≤ 1
11,CC(C)N[C@H]1CC[C@@H](Oc2ccc3cnccc3c2)CC1,≤ 1
12,Clc1c(OC2CCC(NC3CCCCC3)CC2)ccc2cnccc12 (stereo not given),≤ 1
13,C=Cc1c(O[C@H]2CC[C@@H](N)CC2)ccc2cnccc12,≤ 1
14,CC1(c2ccc(CNC3CCC(Oc4ccc5cnccc5c4)CC3)cc2)NC(=O)NC1=O (stereo not given),≤ 1
15,COc1cc(Nc2cc3cc(O[C@H]4CC[C@@H](N)CC4)ccc3cn2)cc(OC)c1OC,≤ 1
